Patent US20250228242A1 (priority 2021, published 2025)
Where a name gives a salt, the structure may show the parent alone.

The compounds below were run on P. infestans (assay: whole plant or invertebrate). Conditions: Phytophthora infestans, in Solanum tuberosum, read-out: P. infestans % inhibition.
Type: in vivo

Q: Which inhibition at 100 µM does the source give for `Clc1ccccc1-c1cc(-c2ccc(N3CCCCC3)cc2)on1` [Compound 91, 1-{4-[3-(2-Chlorophenyl)-1,2-oxazol-5-yl]phenyl}piperidine] here?
A: The inhibition at 100 µM was 29%.

Q: With `O=S(=O)(Nc1ccc(-c2n[nH]c(-c3ccc(C(F)(F)F)cc3)n2)cc1)c1ccc(Cl)cc1` [Compound 92, 4-Chloro-N-(4-{5-[4-(trifluoromethyl)phenyl]-1H-1,2,4-triazol-3-yl}phenyl)benzenesulfonamide] as the compound, how does the inhibition at 100 µM read?
A: Its inhibition at 100 µM is 84%.

Q: For `CC(C)[C@H](N)C(=O)Nc1ccc(-c2cc(-c3cccc(F)c3)on2)cc1` [Compound 93, (2S)-2-Amino-N-{4-[5-(3-fluorophenyl)-1,2-oxazol-3-yl]phenyl}-3-methylbutanamide hydrochloride], which inhibition at 100 µM is on record?
A: The inhibition at 100 µM was 95%.

Q: `O=C(Nc1ccccc1)Nc1ccc(-c2nc(-c3cccc(C(F)(F)F)c3)no2)cc1` [Compound 94, 1-Phenyl-3-(4-{3-[3-(trifluoromethyl)phenyl]-1,2,4-oxadiazol-5-yl}phenyl)urea] was tested. Which inhibition at 100 µM did it give?
A: Its inhibition at 100 µM is 9%.

Q: For `CCOC(=O)c1ccc(-c2noc(-c3ccc(SC)cc3)n2)cc1` [Compound 95, Ethyl 4-{5-[4-(methylsulfanyl)phenyl]-1,2,4-oxadiazol-3-yl}benzoate], which inhibition at 100 µM is on record?
A: Its inhibition at 100 µM is 9%.

Q: Which inhibition at 100 µM does the source give for `CSc1ccc(-c2nc(-c3ccc(C(=O)O)cc3)no2)cc1` [Compound 96, 4-{5-[4-(Methylsulfanyl)phenyl]-1,2,4-oxadiazol-3-yl}benzoic acid] here?
A: The inhibition at 100 µM was 4%.

Q: How did the inhibition at 100 µM turn out when `CC1(C)CCc2cc(-c3cc(-c4cccc(Br)c4)[nH]n3)ccc2O1` [Compound 97, 5-(3-Bromophenyl)-3-(2,2-dimethyl-3,4-dihydro-2H-chromen-6-yl)-1H-pyrazole] was run?
A: Its inhibition at 100 µM is 10%.

Q: With `CN1CCOc2cc(-c3nc(-c4cccc(N5CCOCC5)c4)no3)ccc21` [Compound 98, 4-Methyl-7-{3-[3-(morpholin-4-yl)phenyl]-1,2,4-oxadiazol-5-yl}-3,4-dihydro-2H-1,4-benzoxazine] as the compound, how does the inhibition at 100 µM read?
A: The inhibition at 100 µM was 22%.

Q: For `Cc1ccc([N+](=O)[O-])cc1-c1nc(-c2ccc(F)cc2)n[nH]1` [Compound 99, 3-(4-Fluorophenyl)-5-(2-methyl-5-nitrophenyl)-1H-1,2,4-triazole], which inhibition at 100 µM is on record?
A: The inhibition at 100 µM was 64%.

Q: `Cc1ccc(N)cc1-c1nc(-c2ccc(F)cc2)n[nH]1` [Compound 100, 5-(3-Amino-6-methylphenyl)-3-(4-fluorophenyl)-1H-1,2,4-triazole] was tested. Which inhibition at 100 µM did it give?
A: Its inhibition at 100 µM is 51%.

Q: Which inhibition at 100 µM does the source give for `CCNC(=O)Nc1ccc(C)c(-c2nc(-c3ccc(F)cc3)n[nH]2)c1` [Compound 101, 1-Ethyl-3-{3-[3-(4-fluorophenyl)-1H-1,2,4-triazol-5-yl]-4-methylphenyl}urea] here?
A: Its inhibition at 100 µM is 69%.

Q: With `Cc1ccc(NC(=O)c2cccc(Cl)c2)cc1-c1nc(-c2ccc(F)cc2)n[nH]1` [Compound 102, 3-Chloro-N-{3-[3-(4-fluorophenyl)-1H-1,2,4-triazol-5-yl]-4-methylphenyl}benzamide] as the compound, how does the inhibition at 100 µM read?
A: The inhibition at 100 µM was 30%.

Q: For `Cc1ccc(NC(=O)[C@@H](N)Cc2ccccc2)cc1-c1nc(-c2ccc(F)cc2)n[nH]1` [Compound 103, (2S)-2-Amino-N-{3-[3-(4-fluorophenyl)-1H-1,2,4-triazol-5-yl]-4-methylphenyl}-3-phenylpropanamide hydrochloride], which inhibition at 100 µM is on record?
A: Its inhibition at 100 µM is 99%.

Q: Which inhibition at 100 µM does the source give for `COc1ccc(-c2n[nH]c(-c3cccc(N(C)C)c3)n2)cc1OC` [Compound 105, 3-[3-(3,4-Dimethoxyphenyl)-1H-1,2,4-triazol-5-yl]-N,N-dimethylaniline] here?
A: Its inhibition at 100 µM is 77%.

Q: How did the inhibition at 100 µM turn out when `CCOc1cccc(-c2nc(-c3cccc(C)c3)n[nH]2)c1` [Compound 106, 5-(3-Ethoxyphenyl)-3-(3-methylphenyl)-1H-1,2,4-triazole] was run?
A: Its inhibition at 100 µM is 44%.

Q: `Cc1cccc(-c2n[nH]c(-c3cccc(O)c3)n2)c1` [Compound 107, 5-(3-Hydroxyphenyl)-3-(3-methylphenyl)-1H-1,2,4-triazole] was tested. Which inhibition at 100 µM did it give?
A: The inhibition at 100 µM was 91%.

Q: `CCOC(=O)Nc1cccc(-c2c[nH]c(-c3ccc(F)cc3)n2)c1` [Compound 108, Ethyl {3-[2-(4-fluorophenyl)-1H-imidazol-5-yl]phenyl}carbamate] was tested. Which inhibition at 100 µM did it give?
A: The inhibition at 100 µM was 51%.

Q: How did the inhibition at 100 µM turn out when `c1cc2c(cc1-c1cnc(-c3ccc(N4CCOCC4)cc3)[nH]1)CCO2` [Compound 109, 4-{4-[5-(2,3-Dihydro-1-benzofuran-5-yl)-1H-imidazol-2-yl]phenyl}morpholine] was run?
A: Its inhibition at 100 µM is 11%.

Q: Which inhibition at 100 µM does the source give for `CCOc1ccc(-c2coc(-c3cccc(C(C)C)c3)n2)cc1` [Compound 110, 4-(4-Ethoxyphenyl)-2-[3-(propan-2-yl)phenyl]-1,3-oxazole] here?
A: Its inhibition at 100 µM is 18%.

Q: With `Clc1ccc(-c2cc(-c3ccc4c(c3)OCCO4)n[nH]2)cc1` [Compound 111, 5-(4-Chlorophenyl)-3-(2,3-dihydro-1,4-benzodioxin-6-yl)-1H-pyrazole] as the compound, how does the inhibition at 100 µM read?
A: Its inhibition at 100 µM is 24%.

Q: For `Brc1cccc(-c2cc(-c3ccc4nccnc4c3)n[nH]2)c1` [Compound 112, 6-[5-(3-Bromophenyl)-1H-pyrazol-3-yl]quinoxaline], which inhibition at 100 µM is on record?
A: Its inhibition at 100 µM is 44%.

Q: Which inhibition at 100 µM does the source give for `COc1ccc(-c2c[nH]c(-c3ccc(Cl)cc3)n2)cc1` [Compound 113, 2-(4-Chlorophenyl)-5-(4-methoxyphenyl)-1H-imidazole] here?
A: The inhibition at 100 µM was 90%.

Q: How did the inhibition at 100 µM turn out when `CN1CCN(c2cccc(-c3nc(-c4ccc5c(c4)OCCO5)co3)c2)CC1` [Compound 114, 1-Methyl-4-{3-[4-(2,3-dihydro-1,4-benzodioxin-6-yl)-1,3-oxazol-2-yl]phenyl}piperazine] was run?
A: The inhibition at 100 µM was 93%.

Q: Which inhibition at 100 µM does the source give for `CCOC(=O)c1ccc(-c2ncc(-c3ccc(C)cc3)o2)cc1` [Compound 115, Ethyl 4-[5-(4-methylphenyl)-1,3-oxazol-2-yl]benzoate] here?
A: The inhibition at 100 µM was 12%.

Q: How did the inhibition at 100 µM turn out when `Cc1ccc(-c2cnc(-c3ccc(C(=O)O)cc3)o2)cc1` [Compound 116, 4-[5-(4-Methylphenyl)-1,3-oxazol-2-yl]benzoic acid] was run?
A: The inhibition at 100 µM was 72%.

Q: For `COc1ccc(-c2c[nH]c(-c3ccc(Br)cc3)n2)cc1` [Compound 117, 2-(4-Bromophenyl)-5-(4-methoxyphenyl)-1H-imidazole], which inhibition at 100 µM is on record?
A: Its inhibition at 100 µM is 97%.

Q: With `Oc1ccc(-c2c[nH]c(-c3ccc(Br)cc3)n2)cc1` [Compound 118, 2-(4-Bromophenyl)-5-(4-hydroxyphenyl)-1H-imidazole] as the compound, how does the inhibition at 100 µM read?
A: Its inhibition at 100 µM is 83%.

Q: `CS(=O)(=O)Nc1cccc(-c2ncc(-c3ccc(Cl)c(Cl)c3)o2)c1` [Compound 119, N-{3-[5-(3,4-Dichlorophenyl)-1,3-oxazol-2-yl]phenyl} methanesulfonamide] was tested. Which inhibition at 100 µM did it give?
A: The inhibition at 100 µM was 15%.

Q: For `COC(=O)Nc1cccc(-c2ncc(-c3ccc(Cl)c(Cl)c3)o2)c1` [Compound 120, Methyl {3-[5-(3,4-dichlorophenyl)-1,3-oxazol-2-yl]phenyl}carbamate], which inhibition at 100 µM is on record?
A: Its inhibition at 100 µM is 12%.

Q: For `CCOC(=O)c1cccc(-c2ncc(-c3ccc(C(F)(F)F)cc3OC)o2)c1` [Compound 121, Ethyl 3-{5-[2-methoxy-4-(trifluoromethyl)phenyl]-1,3-oxazol-2-yl}benzoate], which inhibition at 100 µM is on record?
A: The inhibition at 100 µM was 28%.

Q: With `COc1cc(C(F)(F)F)ccc1-c1cnc(-c2cccc(C(=O)O)c2)o1` [Compound 122, 3-{5-[2-Methoxy-4-(trifluoromethyl)phenyl]-1,3-oxazol-2-yl}benzoic acid] as the compound, how does the inhibition at 100 µM read?
A: The inhibition at 100 µM was 36%.

Q: With `CCN(CC)C(=O)c1cccc(-c2ncc(-c3ccc(C(F)(F)F)cc3OC)o2)c1` [Compound 123, N,N-diethyl-3-{5-[2-methoxy-4-(trifluoromethyl)phenyl]-1,3-oxazol-2-yl}benzamide] as the compound, how does the inhibition at 100 µM read?
A: Its inhibition at 100 µM is 33%.

Q: `COc1ccc(S(=O)(=O)Nc2ccc(-c3coc(-c4ccc(OC(C)C)cc4)n3)cc2)cc1` [Compound 124] was tested. Which inhibition at 100 µM did it give?
A: The inhibition at 100 µM was 4%.

Q: `CCc1ccc(-c2c[nH]c(-c3cccc(C(=O)O)c3)n2)cc1` [Compound 125, 3-[4-(4-Ethylphenyl)-1H-imidazol-2-yl]benzoic acid] was tested. Which inhibition at 100 µM did it give?
A: Its inhibition at 100 µM is 30%.

Q: Which inhibition at 100 µM does the source give for `CCc1ccc(-c2cc(-c3cccc(NC(=O)OCCOC)c3)[nH]n2)cc1` [Compound 126, 2-Methoxyethyl {3-[5-(4-ethylphenyl)-1H-pyrazol-3-yl]phenyl}carbamate] here?
A: The inhibition at 100 µM was 81%.

Q: How did the inhibition at 100 µM turn out when `O=C(Nc1ccc(F)cc1)Nc1ccc(-c2cc(-c3cccc(OC(F)(F)F)c3)n[nH]2)cc1` [Compound 127, 1-(4-Fluorophenyl)-3-(4-{5-[3-(trifluoromethoxy)phenyl]-1H-pyrazol-3-yl}phenyl)urea] was run?
A: The inhibition at 100 µM was 18%.

Q: With `O=C(Nc1ccc(-c2cc(-c3cccc(OC(F)(F)F)c3)n[nH]2)cc1)C(F)(F)F` [Compound 128, 2,2,2-Trifluoro-N-(4-{5-[3-(trifluoromethoxy)phenyl]-1H-pyrazol-3-yl}phenyl)acetamide] as the compound, how does the inhibition at 100 µM read?
A: The inhibition at 100 µM was 6%.

Q: For `COc1cc(Cl)cc(-c2nc(-c3ccc(OC(F)(F)F)cc3)co2)c1` [Compound 130, 2-(3-Chloro-5-methoxyphenyl)-4-[4-(trifluoromethoxy)phenyl]-1,3-oxazole], which inhibition at 100 µM is on record?
A: The inhibition at 100 µM was 9%.

Q: `Cc1cc(F)ccc1-c1cnc(-c2cccc(NC(=O)[C@@H](N)CCC(N)=O)c2)o1` [Compound 131, (2S)-2-Amino-N1-{3-[5-(4-fluoro-2-methylphenyl)-1,3-oxazol-2-yl]phenyl}pentanediamide hydrochloride] was tested. Which inhibition at 100 µM did it give?
A: The inhibition at 100 µM was 47%.

Q: With `Oc1cc(Cl)cc(-c2nc(-c3ccc(OC(F)(F)F)cc3)co2)c1` [Compound 132, 2-(3-Chloro-5-hydroxyphenyl)-4-[4-(trifluoromethoxy)phenyl]-1,3-oxazole] as the compound, how does the inhibition at 100 µM read?
A: The inhibition at 100 µM was 66%.

Q: How did the inhibition at 100 µM turn out when `N[C@@H](CC(=O)O)C(=O)Nc1ccc(-c2nc(-c3cccc(C(F)(F)F)c3)no2)cc1` [Compound 133, (3S)-3-Amino-4-oxo-4-[(4-{3-[3-(trifluoromethyl)phenyl]-1,2,4-oxadiazol-5-yl}phenyl)amino]butanoic acid hydrochloride] was run?
A: Its inhibition at 100 µM is 85%.

Q: How did the inhibition at 100 µM turn out when `CCOc1ccc(-c2cc(-c3ccc(C)c(C)c3)[nH]n2)cc1` [Compound 134, 3-(3,4-Dimethylphenyl)-5-(4-ethoxyphenyl)-1H-pyrazole] was run?
A: The inhibition at 100 µM was 19%.

Q: With `O=C(O)c1ccc(-c2nc(-c3ccc(N4CCCC4)cc3)c[nH]2)cc1` [Compound 135, 4-{4-[4-(Pyrrolidin-1-yl)phenyl]-1H-imidazol-2-yl}benzoic acid] as the compound, how does the inhibition at 100 µM read?
A: Its inhibition at 100 µM is 51%.

Q: `O=S(=O)(Nc1cccc(-c2nc(-c3ccc(OC(F)(F)F)cc3)c[nH]2)c1)c1ccc(Cl)cc1` [Compound 136, 4-Chloro-N-(3-{4-[4-(trifluoromethoxy)phenyl]-1H-imidazol-2-yl}phenyl)benzenesulfonamide] was tested. Which inhibition at 100 µM did it give?
A: Its inhibition at 100 µM is 7%.
